{
  "source": "patent US7795290B2",
  "about": "(Genentech, Inc., priority 2004, dated 2010)",
  "data": [
    {"target": "T1, AKT1 (Homo sapiens, UniProt P31749)", "T1 construct": "purchased Upstate 14-276", "T1 sequence (P31749 whole entry)": "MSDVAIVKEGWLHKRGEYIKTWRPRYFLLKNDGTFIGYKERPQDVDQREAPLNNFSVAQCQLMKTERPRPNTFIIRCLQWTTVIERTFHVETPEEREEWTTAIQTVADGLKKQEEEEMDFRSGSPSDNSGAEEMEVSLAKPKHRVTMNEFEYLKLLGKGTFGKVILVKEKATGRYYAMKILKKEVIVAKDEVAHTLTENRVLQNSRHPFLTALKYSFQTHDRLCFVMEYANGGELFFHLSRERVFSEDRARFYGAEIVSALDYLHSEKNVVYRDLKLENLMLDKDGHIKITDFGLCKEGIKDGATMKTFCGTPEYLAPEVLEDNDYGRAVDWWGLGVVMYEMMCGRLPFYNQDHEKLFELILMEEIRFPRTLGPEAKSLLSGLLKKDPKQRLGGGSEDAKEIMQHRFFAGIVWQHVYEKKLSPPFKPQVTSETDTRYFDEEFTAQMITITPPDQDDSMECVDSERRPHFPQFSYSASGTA", "experiment": "HTS ATP-utilizing enzyme assay, off-chip mobility-shift (Caliper HTS 250)", "type": "biochemical", "conditions": "kinase named = inhibitory activity/selectivity; test compound 10 μM; active = greater than three-sigma from mean", "summary_of_the_method": "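AKT1 activity was measured by off-chip mobility shift (Caliper HTS 250) as the ratio of peptide substrate to phosphorylated product. Test compound was at 10 μM, with 2.5 h incubation at 20–22° C. EDTA wells served as 100% control and DMSO wells as 0%. Hits were called at three-sigma limits.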", "values": [
      {"smiles": "Cc1c(-c2csc(N(CCCN3CCOCC3)C(=O)c3cccs3)n2)cnn1-c1ccccc1", "note": "[N-(4-(5-methyl-1-phenyl-1H-pyrazol-4-yl)thiazol-2-yl)-N-(3-morpholinopropyl)thiophene-2-carboxamide]", "Activity": "AKT1"},
      {"smiles": "O=C(c1cccs1)N(CCCN1CCC(O)C1)c1nc(-c2cc3ccccc3o2)cs1", "note": "(centres unmarked) [N-(4-(benzofuran-2-yl)thiazol-2-yl)-N-(3-(3-hydroxypyrrolidin-1-yl)propyl)thiophene-2-carboxamide]", "Activity": "AKT1"},
      {"smiles": "COc1ccc(-c2csc(N(CCCN3CCOCC3)C(=O)c3cc(Cl)ccn3)n2)cc1", "note": "[4-chloro-N-(4-(4-methoxyphenyl)thiazol-2-yl)-N-(3-morpholinopropyl)picolinamide]", "Activity": "AKT1"},
      {"smiles": "COc1ccc(-c2csc(N(CCCN3CCCCC3)C(=O)c3cccs3)n2)cc1OC", "note": "[N-(4-(3,4-dimethoxyphenyl)thiazol-2-yl)-N-(3-(piperidin-1-yl)propyl)thiophene-2-carboxamide]", "Activity": "AKT1"},
      {"smiles": "O=C(c1ccccc1)N(CCCN1CCOCC1)c1nc(-c2ccccc2)cs1", "note": "[N-(3-morpholinopropyl)-N-(4-phenylthiazol-2-yl)benzamide]", "Activity": "AKT1"},
      {"smiles": "O=C(c1cccs1)N(CCCN1CCCCC1)c1nc(-c2cc3ccccc3o2)cs1", "note": "[N-(4-(benzofuran-2-yl)thiazol-2-yl)-N-(3-(piperidin-1-yl)propyl)thiophene-2-carboxamide]", "Activity": "AKT1"},
      {"smiles": "O=C(c1cccs1)N(CCCN1CCOCC1)c1nc(-c2cccs2)cs1", "note": "[N-(3-morpholinopropyl)-N-(4-(thiophen-2-yl)thiazol-2-yl)thiophene-2-carboxamide]", "Activity": "AKT1"},
      {"smiles": "O=C(c1cccs1)N(CCCN1CCOCC1)c1nc(-c2coc3ccccc23)cs1", "note": "[N-(4-(benzofuran-3-yl)thiazol-2-yl)-N-(3-morpholinopropyl)thiophene-2-carboxamide]", "Activity": "AKT1"},
      {"smiles": "CN(C)CCN(C)C(=O)CCN(C(=O)c1cccs1)c1nc(-c2cc3ccccc3o2)cs1", "note": "[N-(4-(benzofuran-2-yl)thiazol-2-yl)-N-(3-((2-(dimethylamino)ethyl)(methyl)amino)-3-oxopropyl)thiophene-2-carboxamide]", "Activity": "AKT1"},
      {"smiles": "O=C1CN(C(=O)CCN(C(=O)c2cccs2)c2nc(-c3cc4ccccc4o3)cs2)CCN1", "note": "[N-(4-(benzofuran-2-yl)thiazol-2-yl)-N-(3-oxo-3-(3-oxopiperazin-1-yl)propyl)thiophene-2-carboxamide]", "Activity": "AKT1"},
      {"smiles": "Cc1cnc(CNC(=O)CCCN(C(=O)c2cccs2)c2nc(-c3cc4ccccc4o3)cs2)cn1", "note": "[N-(4-(benzofuran-2-yl)thiazol-2-yl)-N-(4-((5-methylpyrazin-2-yl)methylamino)-4-oxobutyl)thiophene-2-carboxamide]", "Activity": "AKT1"},
      {"smiles": "O=C(O)Cc1ccc(-c2csc(N(CCCN3CCOCC3)C(=O)c3cccs3)n2)s1", "note": "[2-(5-(2-(N-(3-morpholinopropyl)thiophene-2-carboxamido)thiazol-4-yl)thiophen-2-yl)acetic acid]", "Activity": "AKT1"},
      {"smiles": "Cc1nc(-c2cnccn2)sc1-c1csc(N(CCCN2CCOCC2)C(=O)c2cccs2)n1", "note": "[N-(4′-methyl-2′-(pyrazin-2-yl)-4,5′-bithiazol-2-yl)-N-(3-morpholinopropyl)thiophene-2-carboxamide]", "Activity": "AKT1"},
      {"smiles": "CC(C)CN(C(=O)CCN(C(=O)c1cccs1)c1nc(-c2cc3ccccc3o2)cs1)C1CCS(=O)(=O)C1", "note": "(centres unmarked) [N-(4-(benzofuran-2-yl)thiazol-2-yl)-N-(3-(isobutyl(1,1-dioxo-tetrahydrothiophen-3-yl)amino)-3-oxopropyl)thiophene-2-carboxamide]", "Activity": "AKT1"},
      {"smiles": "O=C(c1ccco1)N(CCCN1CCOCC1)c1nc(-c2cc3ccccc3o2)cs1", "note": "[N-(4-(benzofuran-2-yl)thiazol-2-yl)-N-(3-morpholinopropyl)furan-2-carboxamide]", "Activity": "AKT1"},
      {"smiles": "O=C(NCc1cccc(Cl)c1)c1csc(N(CCCN2CCOCC2)C(=O)c2cccs2)n1", "note": "[N-(3-chlorobenzyl)-2-(N-(3-morpholinopropyl)thiophene-2-carboxamido)thiazole-4-carboxamide]", "Activity": "AKT1"},
      {"smiles": "O=C(c1cccs1)N(CCCN1CCOCC1)c1nc(-c2cc3ccccc3o2)cs1", "note": "[N-(4-(benzofuran-2-yl)thiazol-2-yl)-N-(3-morpholinopropyl)thiophene-2-carboxamide]", "Activity": "AKT1"},
      {"smiles": "COc1cccc(NC(=O)c2csc(N(CCCN3CCOCC3)C(=O)c3cccs3)n2)c1", "note": "[N-(3-methoxyphenyl)-2-(N-(3-morpholinopropyl)thiophene-2-carboxamido)thiazole-4-carboxamide]", "Activity": "AKT1"},
      {"smiles": "CCN(CC)CCCN(C(=O)c1cccs1)c1nc(-c2ccccc2)cs1", "note": "[N-(3-(diethylamino)propyl)-N-(4-phenylthiazol-2-yl)thiophene-2-carboxamide]", "Activity": "AKT1"},
      {"smiles": "COc1ccc(-c2csc(N(CCCN3CCOCC3)C(=O)c3cccc(C)c3)n2)cc1", "note": "[N-(4-(4-methoxyphenyl)thiazol-2-yl)-3-methyl-N-(3-morpholinopropyl)benzamide]", "Activity": "AKT1"},
      {"smiles": "O=C(O)CCOc1ccc(-c2csc(N(CCCN3CCOCC3)C(=O)c3cccs3)n2)cc1", "note": "[3-(4-(2-(N-(3-morpholinopropyl)thiophene-2-carboxamido)thiazol-4-yl)phenoxy)propanoic acid]", "Activity": "AKT1"},
      {"smiles": "CCN(C(C)=O)C1CCN(CCCN(C(=O)c2cccs2)c2nc(-c3cc4ccccc4o3)cs2)C1", "note": "(centres unmarked) [N-(4-(benzofuran-2-yl)thiazol-2-yl)-N-(3-(3-(N-ethylacetamido)pyrrolidin-1-yl)propyl)thiophene-2-carboxamide]", "Activity": "AKT1"},
      {"smiles": "CN1CCN(C(=O)c2ccc(-c3csc(N(CCCN4CCOCC4)C(=O)c4cccs4)n3)cc2)CC1", "note": "[N-(4-(4-(4-methylpiperazine-1-carbonyl)phenyl)thiazol-2-yl)-N-(3-morpholinopropyl)thiophene-2-carboxamide]", "Activity": "AKT1"},
      {"smiles": "CS(=O)(=O)c1ccc(-c2csc(N(CCCN3CCOCC3)C(=O)c3cccs3)n2)cc1", "note": "[N-(4-(4-(methylsulfonyl)phenyl)thiazol-2-yl)-N-(3-morpholinopropyl)thiophene-2-carboxamide]", "Activity": "AKT1"},
      {"smiles": "O=C(c1cccs1)N(CCCN1CCOCC1)c1nc(-c2ccccn2)cs1", "note": "[N-(3-morpholinopropyl)-N-(4-(pyridin-2-yl)thiazol-2-yl)thiophene-2-carboxamide]", "Activity": "AKT1"},
      {"smiles": "CC(C)(C)OC(=O)[C@@H]1CCCN1CCCN(C(=O)c1cccs1)c1nc(-c2cc3ccccc3o2)cs1", "note": "[(S)-tert-butyl 1-(3-(N-(4-(benzofuran-2-yl)thiazol-2-yl)thiophene-2-carboxamido)propyl)pyrrolidine-2-carboxylate]", "Activity": "AKT1"},
      {"smiles": "COc1ccc(-c2csc(N(CCCN3CCOCC3)C(=O)C3=CCCC3)n2)cc1", "note": "[N-(4-(4-methoxyphenyl)thiazol-2-yl)-N-(3-morpholinopropyl)cyclopent-1-enecarboxamide]", "Activity": "AKT1"},
      {"smiles": "O=C(c1ccccc1)N(CCCN1CCCCCC1)c1nc(-c2ccccc2)cs1", "note": "[N-(3-(azepan-1-yl)propyl)-N-(4-phenylthiazol-2-yl)benzamide]", "Activity": "AKT1"},
      {"smiles": "O=C(c1cccs1)N(CCCN1CCN(CCOCCO)CC1)c1nc(-c2cc3ccccc3o2)cs1", "note": "[N-(4-(benzofuran-2-yl)thiazol-2-yl)-N-(3-(4-(2-(2-hydroxyethoxy)ethyl)piperazin-1-yl)propyl)thiophene-2-carboxamide]", "Activity": "AKT1"}
    ]}
  ]
}
